# From ChEMBL document CHEMBL1201862, “PubChem BioAssay data set” (2004)
# Active and inactive are the calls of the source.
# Columns and labels:
# [1] = biological target: Glucose-6-phosphate 1-dehydrogenase (Homo sapiens, UniProt P11413); experiment: human G6PD enzyme inhibitors, dose response, selectivity assay for P. falciparum G6PD inhibitor project, biochemical, fluorescence (AID 504792); assay type: functional
# [2] = biological target: T1, Adenosylmethionine-8-amino-7-oxononanoate aminotransferase (Mycobacterium tuberculosis, UniProt P9WQ81); experiment: Mycobacterium tuberculosis BioA enzyme inhibitor Measured in Biochemical System Using Plate Reader - 2163-02_Inhibitor_Dose_CherryPick_Activity.; assay type: functional, Mycobacterium tuberculosis UT205
# T1 sequence (P9WQ81 whole entry): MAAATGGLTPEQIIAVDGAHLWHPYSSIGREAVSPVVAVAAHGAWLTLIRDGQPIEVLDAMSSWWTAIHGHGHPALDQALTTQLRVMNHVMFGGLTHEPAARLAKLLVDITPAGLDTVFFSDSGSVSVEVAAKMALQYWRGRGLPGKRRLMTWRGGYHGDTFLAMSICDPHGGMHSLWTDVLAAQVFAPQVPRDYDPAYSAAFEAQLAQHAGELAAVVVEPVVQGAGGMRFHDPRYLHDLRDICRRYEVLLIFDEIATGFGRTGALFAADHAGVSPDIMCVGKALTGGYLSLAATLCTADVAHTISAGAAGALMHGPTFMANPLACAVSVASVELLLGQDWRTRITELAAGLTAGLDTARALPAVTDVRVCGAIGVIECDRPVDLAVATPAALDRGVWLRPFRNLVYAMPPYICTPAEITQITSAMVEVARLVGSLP
# [3] = biological target: Cytochrome P450 2C19 (Homo sapiens, UniProt P33261); experiment: Cytochrome panel assay with activity outcomes. Panel member name: p450-cyp2c19 Compounds with AC50 equal or less than 10 uM are considered active; assay type: functional; settings: read-out: AC50
# Cytochrome P450 2C19, sequence (P33261 whole entry): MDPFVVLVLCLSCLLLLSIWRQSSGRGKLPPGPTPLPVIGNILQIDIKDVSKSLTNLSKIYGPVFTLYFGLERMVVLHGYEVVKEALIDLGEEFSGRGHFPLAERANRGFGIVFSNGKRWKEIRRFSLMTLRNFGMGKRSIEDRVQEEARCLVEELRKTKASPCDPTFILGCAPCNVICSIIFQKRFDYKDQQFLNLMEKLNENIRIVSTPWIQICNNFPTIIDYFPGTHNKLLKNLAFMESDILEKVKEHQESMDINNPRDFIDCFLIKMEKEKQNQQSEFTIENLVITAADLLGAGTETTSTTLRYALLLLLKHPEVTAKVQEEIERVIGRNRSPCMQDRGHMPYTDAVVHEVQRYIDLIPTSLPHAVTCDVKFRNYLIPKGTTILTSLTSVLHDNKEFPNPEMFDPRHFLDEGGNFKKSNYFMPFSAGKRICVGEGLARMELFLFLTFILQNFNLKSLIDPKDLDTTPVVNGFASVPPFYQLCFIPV
# [4] = cytotoxicity toward NIH3T3 fibroblasts, dose response, counter-screen, cell-based, ATP luminescence, mouse fibroblasts (AID 2010); assay type: functional;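 also: cells exposed to compound for about 90 hours before reading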
# [5] = biological target: Cytochrome P450 3A4 (Homo sapiens, UniProt P08684);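 also: CYP3A4 tested as one member of a cytochrome P450 panel screen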
# Cytochrome P450 3A4, sequence (P08684 whole entry): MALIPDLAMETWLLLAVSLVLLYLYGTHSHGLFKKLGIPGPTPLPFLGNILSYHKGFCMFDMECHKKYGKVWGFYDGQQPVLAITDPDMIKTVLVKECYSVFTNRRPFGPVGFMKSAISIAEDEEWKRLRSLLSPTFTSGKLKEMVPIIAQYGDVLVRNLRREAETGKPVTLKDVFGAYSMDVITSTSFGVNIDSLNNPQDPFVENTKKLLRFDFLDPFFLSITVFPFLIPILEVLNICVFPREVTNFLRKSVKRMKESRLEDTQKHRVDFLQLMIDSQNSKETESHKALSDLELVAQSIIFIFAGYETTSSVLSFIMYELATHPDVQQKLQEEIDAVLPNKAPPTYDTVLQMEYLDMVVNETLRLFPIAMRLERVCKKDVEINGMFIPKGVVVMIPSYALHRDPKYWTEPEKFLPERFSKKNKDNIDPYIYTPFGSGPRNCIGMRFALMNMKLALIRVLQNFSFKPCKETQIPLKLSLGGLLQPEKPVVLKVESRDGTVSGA
# [6] = inhibitors of intracellular T. cruzi replication, confirmation, NIH3T3 host cells, beta-gal luminescence (AID 2044); assay type: functional, cell-based;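 also: intracellular parasites grown in NIH/3T3 mouse fibroblasts as host cells; luminescent beta-galactosidase reporter signal from transgenic T. cruzi replicating inside host cells; inhibitors lower the luminescence signal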
# [7] = biological target: Prothrombin (Homo sapiens, UniProt P00734); experiment: Thrombin 1536 HTS Dose Response Confirmation. [Related pubchem assays: 1046 (Thrombin 1536 HTS; hits were confirmed in this assay)]; assay type: functional
# [8] = biological target: T2, Cytochrome P450 1A2 (Homo sapiens, UniProt P05177);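 also: PubChem cytochrome P450 panel assay, CYP1A2 panel member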
# T2 sequence (P05177 whole entry): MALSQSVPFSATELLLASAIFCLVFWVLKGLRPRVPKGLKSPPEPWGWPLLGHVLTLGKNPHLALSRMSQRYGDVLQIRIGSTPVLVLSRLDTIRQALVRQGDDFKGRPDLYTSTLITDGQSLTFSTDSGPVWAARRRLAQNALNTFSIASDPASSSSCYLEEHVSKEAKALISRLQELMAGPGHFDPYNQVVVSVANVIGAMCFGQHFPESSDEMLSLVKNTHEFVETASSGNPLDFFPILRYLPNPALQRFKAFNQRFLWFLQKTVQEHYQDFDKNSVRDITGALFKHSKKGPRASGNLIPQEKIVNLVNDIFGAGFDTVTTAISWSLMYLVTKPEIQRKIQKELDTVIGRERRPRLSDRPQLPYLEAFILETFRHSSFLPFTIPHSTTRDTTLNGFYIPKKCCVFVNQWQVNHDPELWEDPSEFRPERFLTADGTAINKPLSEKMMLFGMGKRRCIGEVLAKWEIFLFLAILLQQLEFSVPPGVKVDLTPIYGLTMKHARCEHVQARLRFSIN
# [9] = biological target: Cytochrome P450 2C9 (Homo sapiens, UniProt P11712)
# Cytochrome P450 2C9, sequence (P11712 whole entry): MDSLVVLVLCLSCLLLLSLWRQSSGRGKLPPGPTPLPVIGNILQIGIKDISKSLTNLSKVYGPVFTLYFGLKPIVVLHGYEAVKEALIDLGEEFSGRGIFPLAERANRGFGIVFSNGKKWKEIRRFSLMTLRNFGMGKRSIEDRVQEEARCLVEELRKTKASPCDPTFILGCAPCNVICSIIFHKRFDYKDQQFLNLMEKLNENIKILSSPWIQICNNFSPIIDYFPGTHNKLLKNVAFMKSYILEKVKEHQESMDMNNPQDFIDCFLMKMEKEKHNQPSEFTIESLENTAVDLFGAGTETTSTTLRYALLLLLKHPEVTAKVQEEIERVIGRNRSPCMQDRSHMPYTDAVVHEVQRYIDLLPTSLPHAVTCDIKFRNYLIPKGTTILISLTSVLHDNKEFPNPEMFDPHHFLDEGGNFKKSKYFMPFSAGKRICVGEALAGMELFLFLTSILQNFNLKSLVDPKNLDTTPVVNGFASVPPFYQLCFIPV
# [10] = insulin promoter down-regulators in MIN6 cells, imaging, high-content screening, mouse beta cells (AID 1628); assay type: functional
# [11] = cytotoxicity in MIN6 insulinoma cells, dose response, cytotoxicity control, cell-based, mouse insulinoma (AID 2122); assay type: functional;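 also: confirmatory high-throughput counterscreen run to flag cytotoxic compounds; mouse MIN-6 beta cells carrying an insulin promoter eGFP reporter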
# [12] = microbe, parasite or virus in culture; assay type: functional; settings: Mycobacterium tuberculosis
# [13] = biological target: Ras and Rab interactor 1/Tyrosine-protein kinase ABL1 (Homo sapiens, UniProt P00519+Q13671); assay type: functional;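 also: biochemical TR-FRET dose-response test measuring inhibition of binding between Rin1 and Abl proteins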
# Ras and Rab interactor 1/Tyrosine-protein kinase ABL1, sequence (P00519 whole entry): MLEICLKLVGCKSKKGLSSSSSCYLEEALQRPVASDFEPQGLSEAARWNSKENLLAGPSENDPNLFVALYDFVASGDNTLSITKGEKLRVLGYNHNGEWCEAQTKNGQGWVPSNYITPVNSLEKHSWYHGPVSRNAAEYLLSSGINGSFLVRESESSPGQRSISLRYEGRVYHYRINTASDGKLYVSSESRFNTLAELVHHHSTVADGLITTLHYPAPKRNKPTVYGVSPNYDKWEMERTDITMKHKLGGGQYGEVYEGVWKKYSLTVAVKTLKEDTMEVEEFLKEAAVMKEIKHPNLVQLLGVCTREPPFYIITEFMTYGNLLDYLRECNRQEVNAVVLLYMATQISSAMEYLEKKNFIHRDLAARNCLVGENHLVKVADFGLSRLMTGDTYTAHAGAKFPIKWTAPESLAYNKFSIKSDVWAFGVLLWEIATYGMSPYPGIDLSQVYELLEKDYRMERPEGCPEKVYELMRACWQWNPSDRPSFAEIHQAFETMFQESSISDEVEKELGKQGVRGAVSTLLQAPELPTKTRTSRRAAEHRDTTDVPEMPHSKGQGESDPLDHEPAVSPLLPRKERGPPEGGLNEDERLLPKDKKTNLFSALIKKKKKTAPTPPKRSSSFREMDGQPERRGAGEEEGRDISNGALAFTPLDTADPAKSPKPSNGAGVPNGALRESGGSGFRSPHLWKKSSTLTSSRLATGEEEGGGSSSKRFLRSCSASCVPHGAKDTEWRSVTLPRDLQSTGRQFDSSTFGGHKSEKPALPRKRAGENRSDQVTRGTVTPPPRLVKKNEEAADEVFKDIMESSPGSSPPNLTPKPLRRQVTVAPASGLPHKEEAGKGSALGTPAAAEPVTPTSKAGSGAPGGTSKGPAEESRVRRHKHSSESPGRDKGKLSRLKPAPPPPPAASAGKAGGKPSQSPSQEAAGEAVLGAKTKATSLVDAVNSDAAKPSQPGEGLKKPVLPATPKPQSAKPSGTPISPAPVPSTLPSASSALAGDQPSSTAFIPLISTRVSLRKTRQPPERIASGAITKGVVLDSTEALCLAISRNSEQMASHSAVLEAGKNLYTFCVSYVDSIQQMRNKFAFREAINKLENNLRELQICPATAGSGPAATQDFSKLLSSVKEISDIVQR
# Ras and Rab interactor 1/Tyrosine-protein kinase ABL1, sequence (Q13671 whole entry): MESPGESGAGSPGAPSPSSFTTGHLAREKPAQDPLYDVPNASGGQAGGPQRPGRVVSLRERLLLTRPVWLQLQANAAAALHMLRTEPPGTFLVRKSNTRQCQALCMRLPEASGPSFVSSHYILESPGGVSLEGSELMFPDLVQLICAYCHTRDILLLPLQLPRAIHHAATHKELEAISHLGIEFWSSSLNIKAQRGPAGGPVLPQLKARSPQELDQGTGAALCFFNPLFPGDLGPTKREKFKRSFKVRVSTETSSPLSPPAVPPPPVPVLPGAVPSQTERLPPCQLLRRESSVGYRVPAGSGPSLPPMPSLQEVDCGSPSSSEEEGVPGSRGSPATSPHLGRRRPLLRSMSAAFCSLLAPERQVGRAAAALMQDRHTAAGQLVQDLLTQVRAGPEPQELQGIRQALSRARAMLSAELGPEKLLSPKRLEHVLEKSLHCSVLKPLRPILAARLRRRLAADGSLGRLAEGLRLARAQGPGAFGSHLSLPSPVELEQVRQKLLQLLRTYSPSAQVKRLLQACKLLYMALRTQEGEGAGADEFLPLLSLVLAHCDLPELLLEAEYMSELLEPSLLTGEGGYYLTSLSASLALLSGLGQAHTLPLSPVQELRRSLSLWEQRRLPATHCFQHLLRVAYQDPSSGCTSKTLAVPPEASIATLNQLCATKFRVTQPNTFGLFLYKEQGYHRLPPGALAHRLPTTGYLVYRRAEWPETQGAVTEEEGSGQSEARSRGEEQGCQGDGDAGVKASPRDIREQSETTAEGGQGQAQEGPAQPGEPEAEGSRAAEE
# [14] = biological target: T3, Estrogen receptor beta (Homo sapiens, UniProt Q92731);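 also: recombinant ER-beta bound to coactivator SRC1 peptide in presence of estradiol agonist; inhibitors block coactivator peptide binding and lower the FRET signal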
# T3 sequence (Q92731 whole entry): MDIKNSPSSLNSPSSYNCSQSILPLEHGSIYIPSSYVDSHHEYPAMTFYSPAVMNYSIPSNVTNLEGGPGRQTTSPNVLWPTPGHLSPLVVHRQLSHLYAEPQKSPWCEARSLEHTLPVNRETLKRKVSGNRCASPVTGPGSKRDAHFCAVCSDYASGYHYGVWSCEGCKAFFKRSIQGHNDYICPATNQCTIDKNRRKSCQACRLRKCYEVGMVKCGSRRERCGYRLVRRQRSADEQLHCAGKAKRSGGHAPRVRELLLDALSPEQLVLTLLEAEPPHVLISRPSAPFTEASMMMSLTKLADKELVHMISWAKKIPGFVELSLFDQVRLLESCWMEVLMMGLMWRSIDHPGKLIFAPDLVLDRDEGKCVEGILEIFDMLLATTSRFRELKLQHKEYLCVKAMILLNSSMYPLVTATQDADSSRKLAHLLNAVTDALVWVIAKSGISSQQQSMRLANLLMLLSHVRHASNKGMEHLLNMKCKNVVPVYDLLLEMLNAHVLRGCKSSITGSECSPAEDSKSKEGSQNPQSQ
# [15] = biological target: T3, Estrogen receptor beta; experiment: ERβ–SRC-3 coactivator interaction inhibitors, confirmation, orthogonal assay, biochemical, ELISA, streptavidin-HRP readout (AID 1060)
# [16] = biological target: Induced myeloid leukemia cell differentiation protein Mcl-1 (Homo sapiens, UniProt Q07820); assay type: functional
# Induced myeloid leukemia cell differentiation protein Mcl-1, sequence (Q07820 whole entry): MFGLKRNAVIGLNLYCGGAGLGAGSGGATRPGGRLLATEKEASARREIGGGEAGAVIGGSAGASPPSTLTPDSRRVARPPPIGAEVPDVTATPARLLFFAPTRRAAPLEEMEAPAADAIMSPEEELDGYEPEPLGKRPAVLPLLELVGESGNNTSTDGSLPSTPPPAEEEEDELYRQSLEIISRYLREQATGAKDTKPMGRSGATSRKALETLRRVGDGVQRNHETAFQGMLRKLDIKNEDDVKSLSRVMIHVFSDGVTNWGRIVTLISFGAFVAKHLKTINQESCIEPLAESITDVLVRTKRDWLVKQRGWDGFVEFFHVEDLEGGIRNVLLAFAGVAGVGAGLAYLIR
# Glucose-6-phosphate 1-dehydrogenase, sequence (P11413 whole entry): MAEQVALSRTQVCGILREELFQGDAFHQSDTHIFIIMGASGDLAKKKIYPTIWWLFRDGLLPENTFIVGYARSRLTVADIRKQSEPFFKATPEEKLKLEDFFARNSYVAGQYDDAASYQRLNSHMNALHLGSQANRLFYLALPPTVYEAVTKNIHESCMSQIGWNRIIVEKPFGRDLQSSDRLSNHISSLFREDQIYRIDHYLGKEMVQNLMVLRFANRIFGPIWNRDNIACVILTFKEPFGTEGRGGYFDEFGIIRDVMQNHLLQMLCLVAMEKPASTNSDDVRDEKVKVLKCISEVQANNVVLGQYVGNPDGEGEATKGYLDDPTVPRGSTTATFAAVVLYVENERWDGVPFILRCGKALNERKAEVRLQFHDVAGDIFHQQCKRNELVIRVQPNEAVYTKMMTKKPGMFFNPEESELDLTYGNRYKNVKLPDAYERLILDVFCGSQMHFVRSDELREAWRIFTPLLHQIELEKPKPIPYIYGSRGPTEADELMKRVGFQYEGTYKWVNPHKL
structure (smiles),measurement,setting,value
Cc1ccccc1OCC(=O)N/N=C/c1ccc(Sc2nc3ccccc3s2)o1,IC50,[1],> 80 µM (inactive)
Cc1ccccc1-n1c(SCC(=O)N(C)C2CCS(=O)(=O)C2)nc2ccccc2c1=O (stereo not given),AC50,[2],2.39 µM (active)
COc1ccc(Cc2c(-c3ccc(OC)c(OC)c3)nc3ccc(C)cn23)c(C)c1,AC50,[2],2.73 µM (active)
COc1ccc(-c2c[n+]3c4n2CCCCC4=C(c2ccccc2)C3)cc1,AC50,[3],3.55 µM (inconclusive)
same,EC50,[4],> 60 µM (not active)
same,AC50,[5],3.16 µM (inconclusive)
same,EC50,[6],0.169 µM (active)
same,IC50,[7],> 50 µM (not active)
same,AC50,[8],28.2 µM (inconclusive)
same,AC50,[9],0.0316 µM (inconclusive)
same,IC50,[10],> 16 µM (inactive)
same,IC50,[11],2.76 µM (active)
same,CC50,[12],28.1 µM (active)
COC(=O)c1ccc(CSc2nnc(-c3ccccc3)n2C)o1,IC50,[13],14.1 µM (inactive)
N=c1c(C(=O)NCc2ccco2)cc2c(=O)n3ccccc3nc2n1CCc1ccccc1,IC50,[14],> 50 µM (not active)
same,IC50,[15],> 50 µM (not active)
same,IC50,[10],0.861 µM (active)
same,IC50,[11],12.4 µM (inactive)
Cc1ccc(/C=C2\C(=O)NC(=S)N(c3ccccc3F)C2=O)s1,IC50,[1],> 80 µM (inactive)
same,IC50,[16],4.91 µM (active)
